Literature values, collected in patent US4743707A, “Process for purifying allyl alcohol” (priority 1986, dated 1988).

Details: 20° C.; Ullmanns Encyklopadie

For `O=P([O-])([O-])OP(=O)([O-])OP(=O)([O-])[O-].[K+].[K+].[K+].[K+].[K+]` [Potassium tripolyphosphate, potassium tripolyphosphate], the water solubility is listed as “about 67%”.
